Measured values taken from patent US12578336B2, “ATP detection” (Promega Corporation, priority 2022, dated 2026).
“Also recorded” adds a separate entry of the source.

T1: ENPP1 (Homo sapiens, UniProt P22413)
T1 sequence (P22413 1-925): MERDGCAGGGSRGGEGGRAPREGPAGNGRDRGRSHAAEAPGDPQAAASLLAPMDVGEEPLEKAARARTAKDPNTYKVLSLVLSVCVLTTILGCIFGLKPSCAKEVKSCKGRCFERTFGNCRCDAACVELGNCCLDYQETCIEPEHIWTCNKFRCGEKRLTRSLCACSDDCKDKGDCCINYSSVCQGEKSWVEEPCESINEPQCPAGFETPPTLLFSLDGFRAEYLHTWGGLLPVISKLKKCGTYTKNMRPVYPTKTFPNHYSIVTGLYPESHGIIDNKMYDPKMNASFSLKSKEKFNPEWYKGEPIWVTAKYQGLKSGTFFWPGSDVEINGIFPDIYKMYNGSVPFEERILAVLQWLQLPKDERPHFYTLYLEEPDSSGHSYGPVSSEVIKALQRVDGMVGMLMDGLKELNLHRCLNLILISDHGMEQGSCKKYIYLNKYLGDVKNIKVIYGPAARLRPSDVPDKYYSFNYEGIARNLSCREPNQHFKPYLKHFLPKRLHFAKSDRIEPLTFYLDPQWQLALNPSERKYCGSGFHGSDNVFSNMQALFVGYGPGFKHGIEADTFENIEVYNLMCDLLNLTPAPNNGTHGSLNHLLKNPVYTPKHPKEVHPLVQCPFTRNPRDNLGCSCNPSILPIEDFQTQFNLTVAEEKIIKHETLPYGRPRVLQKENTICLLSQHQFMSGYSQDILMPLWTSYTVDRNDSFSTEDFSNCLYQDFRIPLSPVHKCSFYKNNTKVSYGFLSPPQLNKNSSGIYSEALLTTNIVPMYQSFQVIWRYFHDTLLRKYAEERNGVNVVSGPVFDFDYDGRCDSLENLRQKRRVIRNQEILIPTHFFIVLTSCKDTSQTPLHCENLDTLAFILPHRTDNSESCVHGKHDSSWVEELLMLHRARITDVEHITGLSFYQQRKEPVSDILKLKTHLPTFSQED

B1: ENPP1: zinc-dependent enzyme that converts ATP to AMP and pyrophosphate (protein, UniProt P22413 1-925, looked up)
Ectonucleotide …: T1 sequence (P22413 1-925)

Experiments:
Pp-apyrase [1] = target: T2, Pp-apyrase (Phlebotomus papatasi, UniProt Q9GTP7); assay: Inactivation of Pp-apyrase by EGTA in cell lysis/ATP detection reagent, tube format; type: biochemical; conditions: 10 mM EGTA in cell lysis/ATP detection reagent
T2 construct: GST (glutathione S transferase); made in house; host or cells: E. coli
T2 sequence (Q9GTP7 22-336 limits assumed): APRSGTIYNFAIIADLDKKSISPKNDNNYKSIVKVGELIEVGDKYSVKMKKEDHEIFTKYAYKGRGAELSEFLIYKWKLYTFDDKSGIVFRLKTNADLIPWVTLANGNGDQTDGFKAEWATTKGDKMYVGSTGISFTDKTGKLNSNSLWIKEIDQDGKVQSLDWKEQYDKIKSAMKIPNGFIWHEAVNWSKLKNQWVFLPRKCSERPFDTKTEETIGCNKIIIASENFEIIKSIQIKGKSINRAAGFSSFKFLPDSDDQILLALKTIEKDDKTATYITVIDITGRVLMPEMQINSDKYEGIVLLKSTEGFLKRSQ
Description: Luminescent signals were measured over time starting immediately after addition of the lysis/ATP detection reagent. Reactions were performed in microcentrifuge-style tubes and analyzed for luminescence on a single tube reading luminometer (GloMax® 20/20, Promega Corp.).
Reactions were performed in microcentrifuge-style tubes and analyzed for luminescence on a single tube reading luminometer (GloMax® 20/20, Promega Corp.).

[2] = system: St-apyrase (Ca2+/Mg2+ apyrase from potato); assay: Inhibition of St-apyrase by EGTA, luminescence over time; type: biochemical, Solanum tuberosum; conditions: same amount of EGTA; luminescence declined over time
Text: (§1) The Ca^2+/Mg^2+ apyrase from potato, Solanum tuberosum (St-apyrase), is the most commonly used apyrase for ATP elimination. However, its inactivation requires measures, such as high temperature or extreme pH treatment, which are incompatible with the simple cartridge design disclosed here. The need for an extended heating time for apyrase inactivation is also incompatible with the goal of rapid sample collection and analysis. […] Cl- and St-apyrase were compared for their capacity to remove extracellular ATP and to be inhibited by the Ca^2+-selective chelator EGTA. Mg^2+ is critical for luciferase activity so the Mg^2+-selective chelator EDTA was not tested. In the absence of EGTA, both enzymes eliminated ATP as indicated by a time-dependent decrease in luminescence (FIG. 3).

ENPP1 = target: T1, ENPP1; assay: ENPP1 ATP degradation and its inhibition by chelators/inhibitor, Kinase-Glo; type: biochemical
Description: ENPP1 converts ATP to AMP and pyrophosphate, is zinc-dependent, and is inactivated by EGTA, by the zinc chelator N,N,N′,N′-Tetrakis (2 pyridylmethyl) ethylenediamine (TPEN), and by certain small molecule inhibitors.
ENPP1 (100 ng/reaction) was incubated with 10 μM ATP and varying amounts of chelators (EGTA, TPEN) or an ENPP1 selective inhibitor called inhibitor C in a reaction buffer containing 50 mM Tris HCl, pH 7.5, 250 mM NaCl, 5 uM ZnCl2, 0.1 mg/ml BSA. The reactions were allowed to proceed for 60 minutes.

Pp-apyrase [3] = target: T2, Pp-apyrase; assay: Inhibition of Pp-apyrase by EGTA in cartridge format; type: biochemical; conditions: EGTA in lysis/ATP detection reagent, after an initial ATP elimination step
Description: Apyrase from the sandfly Phlebotomus papatasi (Pp-apyrase) was also characterized for use in an exemplary cartridge format. […] Empty plastic cartridges were obtained from Empire Bio Diagnostics. […] 20 second exposures of ATP in swab tips were followed by immersion of the swab tips in the cartridge receptacle in the ATP detection/cell lysis formulation with 10 mM EGTA described for FIG. 6, and then insertion of the cartridge receptacle in a handheld luminometer (luminometer prototype by Empire Bio Diagnostics). […] A portion of the values shown above the vertical axis represent luminescent values too low to be visible as bars on the graph.

Cl-apyrase (Ca-apyrase) = target: T3, Cl-apyrase (Ca-apyrase) (Cimex lectularius, UniProt O96559); assay: Inhibition of Cl-apyrase by EGTA, luminescence over time; type: biochemical; conditions: EGTA present; decline of luminescence over time
T3 construct: His tag; made in house; host or cells: E. coli
T3 sequence (O96559 36-364 limits assumed): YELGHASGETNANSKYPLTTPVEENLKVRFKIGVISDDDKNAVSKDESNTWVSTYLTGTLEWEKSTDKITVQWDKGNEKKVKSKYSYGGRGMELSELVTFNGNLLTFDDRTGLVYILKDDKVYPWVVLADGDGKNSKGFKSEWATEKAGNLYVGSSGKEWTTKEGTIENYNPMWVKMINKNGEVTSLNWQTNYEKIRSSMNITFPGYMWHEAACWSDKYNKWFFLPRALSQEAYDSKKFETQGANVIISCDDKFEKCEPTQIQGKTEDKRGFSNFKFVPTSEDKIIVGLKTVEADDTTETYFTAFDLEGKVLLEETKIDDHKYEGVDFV
Text: as §1

Molecule | inactivation of Pp-apyrase (in words) (Pp-apyrase [1]) | St-apyrase inhibition in the presence of EGTA (in words) [2] | inactivation of ENPP1 (in words) (ENPP1) | inhibition of Pp-apyrase in cartridge format (in words) (Pp-apyrase [3]) | Cl-apyrase activity in the presence of EGTA (in words) (Cl-apyrase (Ca-apyrase)) | conditionally active ATP eliminating properties (in words) (ENPP1; ENPP1 100 ng/reaction, 10 μM ATP, 60 minutes, 5 uM ZnCl2)
O=C(O)CN(CCOCCOCCN(CC(=O)O)CC(=O)O)CC(=O)O [EGTA] | effectively inactivated; also recorded: substantially inactivated | only partially inhibited | inactivated | effective | no Cl-apyrase activity was detected; also recorded: substantially inactivated | –
c1ccc(CN(CCN(Cc2ccccn2)Cc2ccccn2)Cc2ccccn2)nc1 [TPEN, N,N,N′,N′-Tetrakis (2 pyridylmethyl) ethylenediamine] | – | – | inactivated | – | – | –
B1 | – | – | – | – | – | qualitatively demonstrated the conditionally active ATP eliminating properties
